Test results: patent US20100298141A1, “SUBSTITUTED PYRIDINE N-OXIDE HERBICIDES” (E. I. DU PONT DE NEMOURS AND COMPANY, priority 2007, published 2010)

How the values were obtained:
Test in all cases: Test F preemergence test
annual bluegrass = format: in vivo, Poa annua; conditions: scale 0 to 100
Source text: (§1) Seeds of plant species selected from bermudagrass (Cynodon dactylon), Surinam grass (Brachiaria decumbens), large crabgrass (Digitaria sanguinalis), green foxtail (Setaria viridis), goosegrass (Eleusine indica), johnsongrass (Sorghum halepense), kochia (Kochia scoparia), pitted morningglory (Ipomoea lacunosa), purple nutsedge (Cyperus rotundus), common ragweed (Ambrosia elation), mustard (Brassica nigra), guineagrass (Panicum maximum), […] (Paspalum dilatatum), barnyardgrass (Echinochloa crus-galli), southern sandbur (Cenchrus echinatus), common sowthistle (Sonchus oleraceous), prickly […] spinosa), Italian ryegrass (Lolium multiflorum), common purslane (Portulaca oleracea), broadleaf signalgrass (Brachiaria platyphylla), common groundsel (Senecio vulgaris), common chickweed (Stellaria media), Virginia dayflower (Commelina virginica), annual bluegrass (Poa annua), naked crabgrass (Digitaria nuda), […] cochinchinensis), quackgrass (Elytrigia repens), Canada horseweed (Conyza canadensis), field bindweed (Convolvulus arvensis), […] (Bidens bipinnata), common mallow (Malva sylvestris), Russian thistle (Salsola kali), and sugarcane (Saccharum officinarum) were planted and treated preemergence with test chemicals formulated in a non-phytotoxic solvent mixture which included a surfactant. At a different time, sugarcane was treated with postemergence applications of some of the test chemicals formulated in the same manner. Plants were approximately 3- to 4-leaf stage for the postemergence treatments. Treated plants and controls were maintained in a greenhouse for 14 to 21 days, after which time all species were compared to controls and visually evaluated. […] A dash (-) response means no test result.

purple nutsedge = format: in vivo, Cyperus rotundus; conditions: scale 0 to 100
Source text: as §1

goosegrass = format: in vivo, Eleusine indica; conditions: scale 0 to 100
Source text: as §1

field bindweed = format: in vivo, Convolvulus arvensis; conditions: scale 0 to 100
Source text: as §1

naked crabgrass = format: in vivo, Digitaria nuda; conditions: scale 0 to 100
Source text: as §1

Italian ryegrass = format: in vivo, Lolium multiflorum; conditions: scale 0 to 100; for Ryegrass, Italian plant response rating: 125 g ai/ha
Source text: as §1

common purslane = format: in vivo, Portulaca oleracea; conditions: scale 0 to 100
Source text: as §1

itchgrass = format: in vivo, Rottboellia cochinchinensis; conditions: scale 0 to 100
Source text: as §1

barnyardgrass = format: in vivo, Echinochloa crus-galli
Source text: as §1

large crabgrass = format: in vivo, Digitaria sanguinalis; conditions: scale 0 to 100
Source text: as §1

green foxtail = format: in vivo, Setaria viridis; conditions: scale 0 to 100
Source text: as §1

common groundsel = format: in vivo, Senecio vulgaris; conditions: scale 0 to 100
Source text: as §1

southern sandbur = format: in vivo, Cenchrus echinatus; conditions: scale 0 to 100; for Sandbur plant response rating: 125 g ai/ha
Source text: as §1

johnsongrass = format: in vivo, Sorghum halepense; conditions: scale 0 to 100
Source text: as §1

common ragweed = format: in vivo, Ambrosia elation; conditions: scale 0 to 100
Source text: as §1

[1] = 16 g ai/ha, preemergence, scale 0 to 100 (0 no effect, 100 complete control)
[2] = 62 g ai/ha, Preemergence, scale 0 to 100
[3] = 125 g ai/ha, preemergence, scale 0 to 100
[4] = Preemergence, 31 g ai/ha, scale 0 to 100

Structure (SMILES): Cc1cc([S+]([O-])Cc2c(C(F)(F)F)nn(C)c2OCC(F)(F)F)[n+]([O-])cc1Cl (centres unmarked) [Compound 70]
- Plant response rating, Bluegrass (annual bluegrass; 16 g ai/ha, preemergence): 65
- Bluegrass plant response rating (annual bluegrass; 62 g ai/ha, Preemergence): 95
- Bluegrass plant response rating (annual bluegrass; 125 g ai/ha, preemergence): 100
- Plant response rating, Bluegrass (annual bluegrass; Preemergence, 31 g ai/ha): 75
- Plant response rating, Purple Nutsedge (purple nutsedge; 16 g ai/ha, preemergence): 0
- Purple Nutsedge plant response rating (purple nutsedge; 62 g ai/ha, Preemergence): 20
- Purple Nutsedge plant response rating (purple nutsedge; 125 g ai/ha, preemergence): 40
- Plant response rating, Purple Nutsedge (purple nutsedge; Preemergence, 31 g ai/ha): 15
- Plant response rating, Goosegrass (goosegrass; 16 g ai/ha, preemergence): 60
- Goosegrass plant response rating (goosegrass; 62 g ai/ha, Preemergence): 80
- Goosegrass plant response rating (goosegrass; 125 g ai/ha, preemergence): 100
- Plant response rating, Goosegrass (goosegrass; Preemergence, 31 g ai/ha): 80
- Plant response rating, Field Bindweed (field bindweed; 16 g ai/ha, preemergence): 40
- Field Bindweed plant response rating (field bindweed; 62 g ai/ha, Preemergence): 40
- Field Bindweed plant response rating (field bindweed; 125 g ai/ha, preemergence): 40
- Plant response rating, Field Bindweed (field bindweed; Preemergence, 31 g ai/ha): 40
- Plant response rating, Crabgrass, Naked (naked crabgrass; 16 g ai/ha, preemergence): 90
- Crabgrass, Naked plant response rating (naked crabgrass; 62 g ai/ha, Preemergence): 100
- Crabgrass, Naked plant response rating (naked crabgrass; 125 g ai/ha, preemergence): 100
- Plant response rating, Crabgrass, Naked (naked crabgrass; Preemergence, 31 g ai/ha): 90
- Ryegrass, Italian plant response rating (Italian ryegrass; preemergence): 100
- Plant response rating, Ryegrass, Italian (Italian ryegrass; Preemergence, 62 g ai/ha): 100
- Plant response rating, Ryegrass, Italian (Italian ryegrass; Preemergence, 31 g ai/ha): 75
- Purslane plant response rating (common purslane; 62 g ai/ha, Preemergence): 75
- Purslane plant response rating (common purslane; 125 g ai/ha, preemergence): 75
- Plant response rating, Purslane (common purslane; Preemergence, 31 g ai/ha): 35
- Plant response rating, Itchgrass (itchgrass; 16 g ai/ha, preemergence): 80
- Itchgrass plant response rating (itchgrass; 62 g ai/ha, Preemergence): 80
- Itchgrass plant response rating (itchgrass; 125 g ai/ha, preemergence): 100
- Plant response rating, Itchgrass (itchgrass; Preemergence, 31 g ai/ha): 80
- Plant response rating, Barnyardgrass (barnyardgrass; [1]): 60
- Barnyardgrass plant response rating (barnyardgrass; [2]): 95
- Barnyardgrass plant response rating (barnyardgrass; [3]): 100
- Plant response rating, Barnyardgrass (barnyardgrass; [4]): 70
- Plant response rating, Crabgrass, Large (large crabgrass; 16 g ai/ha, preemergence): 35
- Crabgrass, Large plant response rating (large crabgrass; 62 g ai/ha, Preemergence): 70
- Crabgrass, Large plant response rating (large crabgrass; 125 g ai/ha, preemergence): 98
- Plant response rating, Crabgrass, Large (large crabgrass; Preemergence, 31 g ai/ha): 50
- Foxtail, Green plant response rating (green foxtail; 62 g ai/ha, Preemergence): 75
- Foxtail, Green plant response rating (green foxtail; 125 g ai/ha, preemergence): 90
- Plant response rating, Foxtail, Green (green foxtail; Preemergence, 31 g ai/ha): 65
- Groundsel plant response rating (common groundsel; 62 g ai/ha, Preemergence): 98
- Groundsel plant response rating (common groundsel; 125 g ai/ha, preemergence): 100
- Plant response rating, Groundsel (common groundsel; Preemergence, 31 g ai/ha): 98
- Plant response rating, Sandbur (southern sandbur; 16 g ai/ha, preemergence): 65
- Sandbur plant response rating (southern sandbur; preemergence): 100
- Plant response rating, Sandbur (southern sandbur; Preemergence, 62 g ai/ha): 75
- Plant response rating, Johnsongrass (johnsongrass; 16 g ai/ha, preemergence): 90
- Johnsongrass plant response rating (johnsongrass; 62 g ai/ha, Preemergence): 100
- Johnsongrass plant response rating (johnsongrass; 125 g ai/ha, preemergence): 100
- Plant response rating, Johnsongrass (johnsongrass; Preemergence, 31 g ai/ha): 90
- Plant response rating, Ragweed (common ragweed; 16 g ai/ha, preemergence): 60
- Plant response rating, Ragweed (common ragweed; Preemergence, 62 g ai/ha): 80
- Plant response rating, Ragweed (common ragweed; Preemergence, 31 g ai/ha): 60

Structure (SMILES): Cn1nc(C(F)(F)C(F)(F)F)c(C[S+]([O-])c2cccc[n+]2[O-])c1OCC(F)(F)F (centres unmarked) [Compound 79]
- Plant response rating, Bluegrass (annual bluegrass; 16 g ai/ha, preemergence): 0
- Bluegrass plant response rating (annual bluegrass; 62 g ai/ha, Preemergence): 90
- Bluegrass plant response rating (annual bluegrass; 125 g ai/ha, preemergence): 100
- Plant response rating, Bluegrass (annual bluegrass; Preemergence, 31 g ai/ha): 0
- Plant response rating, Purple Nutsedge (purple nutsedge; 16 g ai/ha, preemergence): 0
- Purple Nutsedge plant response rating (purple nutsedge; 62 g ai/ha, Preemergence): 0
- Purple Nutsedge plant response rating (purple nutsedge; 125 g ai/ha, preemergence): 60
- Plant response rating, Purple Nutsedge (purple nutsedge; Preemergence, 31 g ai/ha): 0
- Plant response rating, Goosegrass (goosegrass; 16 g ai/ha, preemergence): 20
- Goosegrass plant response rating (goosegrass; 62 g ai/ha, Preemergence): 98
- Goosegrass plant response rating (goosegrass; 125 g ai/ha, preemergence): 100
- Plant response rating, Goosegrass (goosegrass; Preemergence, 31 g ai/ha): 75
- Plant response rating, Field Bindweed (field bindweed; 16 g ai/ha, preemergence): 60
- Field Bindweed plant response rating (field bindweed; 62 g ai/ha, Preemergence): 80
- Field Bindweed plant response rating (field bindweed; 125 g ai/ha, preemergence): 95
- Plant response rating, Field Bindweed (field bindweed; Preemergence, 31 g ai/ha): 70
- Plant response rating, Crabgrass, Naked (naked crabgrass; 16 g ai/ha, preemergence): 0
- Crabgrass, Naked plant response rating (naked crabgrass; 62 g ai/ha, Preemergence): 100
- Crabgrass, Naked plant response rating (naked crabgrass; 125 g ai/ha, preemergence): 100
- Plant response rating, Crabgrass, Naked (naked crabgrass; Preemergence, 31 g ai/ha): 40
- Plant response rating, Ryegrass, Italian (Italian ryegrass; 16 g ai/ha, preemergence): 0
- Ryegrass, Italian plant response rating (Italian ryegrass; preemergence): 100
- Plant response rating, Ryegrass, Italian (Italian ryegrass; Preemergence, 62 g ai/ha): 100
- Plant response rating, Ryegrass, Italian (Italian ryegrass; Preemergence, 31 g ai/ha): 65
- Plant response rating, Purslane (common purslane; 16 g ai/ha, preemergence): 30
- Purslane plant response rating (common purslane; 62 g ai/ha, Preemergence): 60
- Purslane plant response rating (common purslane; 125 g ai/ha, preemergence): 100
- Plant response rating, Purslane (common purslane; Preemergence, 31 g ai/ha): 40
- Plant response rating, Itchgrass (itchgrass; 16 g ai/ha, preemergence): 0
- Itchgrass plant response rating (itchgrass; 62 g ai/ha, Preemergence): 75
- Itchgrass plant response rating (itchgrass; 125 g ai/ha, preemergence): 95
- Plant response rating, Itchgrass (itchgrass; Preemergence, 31 g ai/ha): 75
- Plant response rating, Barnyardgrass (barnyardgrass; [1]): 20
- Barnyardgrass plant response rating (barnyardgrass; [2]): 100
- Barnyardgrass plant response rating (barnyardgrass; [3]): 100
- Plant response rating, Barnyardgrass (barnyardgrass; [4]): 80
- Plant response rating, Crabgrass, Large (large crabgrass; 16 g ai/ha, preemergence): 0
- Crabgrass, Large plant response rating (large crabgrass; 62 g ai/ha, Preemergence): 80
- Crabgrass, Large plant response rating (large crabgrass; 125 g ai/ha, preemergence): 100
- Plant response rating, Crabgrass, Large (large crabgrass; Preemergence, 31 g ai/ha): 20
- Plant response rating, Foxtail, Green (green foxtail; 16 g ai/ha, preemergence): 20
- Foxtail, Green plant response rating (green foxtail; 62 g ai/ha, Preemergence): 90
- Foxtail, Green plant response rating (green foxtail; 125 g ai/ha, preemergence): 100
- Plant response rating, Foxtail, Green (green foxtail; Preemergence, 31 g ai/ha): 60
- Plant response rating, Groundsel (common groundsel; 16 g ai/ha, preemergence): 95
- Groundsel plant response rating (common groundsel; 62 g ai/ha, Preemergence): 95
- Groundsel plant response rating (common groundsel; 125 g ai/ha, preemergence): 100
- Plant response rating, Groundsel (common groundsel; Preemergence, 31 g ai/ha): 95
- Sandbur plant response rating (southern sandbur; preemergence): 95
- Plant response rating, Sandbur (southern sandbur; Preemergence, 62 g ai/ha): 95
- Plant response rating, Sandbur (southern sandbur; Preemergence, 31 g ai/ha): 35
- Plant response rating, Johnsongrass (johnsongrass; 16 g ai/ha, preemergence): 0
- Johnsongrass plant response rating (johnsongrass; 62 g ai/ha, Preemergence): 90
- Johnsongrass plant response rating (johnsongrass; 125 g ai/ha, preemergence): 100
- Plant response rating, Johnsongrass (johnsongrass; Preemergence, 31 g ai/ha): 50
- Plant response rating, Ragweed (common ragweed; 16 g ai/ha, preemergence): 95
- Ragweed plant response rating (common ragweed; 125 g ai/ha, preemergence): 100
- Plant response rating, Ragweed (common ragweed; Preemergence, 62 g ai/ha): 100
- Plant response rating, Ragweed (common ragweed; Preemergence, 31 g ai/ha): 100
